Experimental data as given in ChEMBL document CHEMBL3352570, “ST7612AA1, a thioacetate-ω(γ-lactam carboxamide) derivative selected from a novel generation of oral HDAC inhibitors” (J Med Chem, 2014).

Target: T1, Protein deacetylase HDAC6 (Homo sapiens, UniProt Q9UBN7)
T1 sequence (Q9UBN7 whole entry): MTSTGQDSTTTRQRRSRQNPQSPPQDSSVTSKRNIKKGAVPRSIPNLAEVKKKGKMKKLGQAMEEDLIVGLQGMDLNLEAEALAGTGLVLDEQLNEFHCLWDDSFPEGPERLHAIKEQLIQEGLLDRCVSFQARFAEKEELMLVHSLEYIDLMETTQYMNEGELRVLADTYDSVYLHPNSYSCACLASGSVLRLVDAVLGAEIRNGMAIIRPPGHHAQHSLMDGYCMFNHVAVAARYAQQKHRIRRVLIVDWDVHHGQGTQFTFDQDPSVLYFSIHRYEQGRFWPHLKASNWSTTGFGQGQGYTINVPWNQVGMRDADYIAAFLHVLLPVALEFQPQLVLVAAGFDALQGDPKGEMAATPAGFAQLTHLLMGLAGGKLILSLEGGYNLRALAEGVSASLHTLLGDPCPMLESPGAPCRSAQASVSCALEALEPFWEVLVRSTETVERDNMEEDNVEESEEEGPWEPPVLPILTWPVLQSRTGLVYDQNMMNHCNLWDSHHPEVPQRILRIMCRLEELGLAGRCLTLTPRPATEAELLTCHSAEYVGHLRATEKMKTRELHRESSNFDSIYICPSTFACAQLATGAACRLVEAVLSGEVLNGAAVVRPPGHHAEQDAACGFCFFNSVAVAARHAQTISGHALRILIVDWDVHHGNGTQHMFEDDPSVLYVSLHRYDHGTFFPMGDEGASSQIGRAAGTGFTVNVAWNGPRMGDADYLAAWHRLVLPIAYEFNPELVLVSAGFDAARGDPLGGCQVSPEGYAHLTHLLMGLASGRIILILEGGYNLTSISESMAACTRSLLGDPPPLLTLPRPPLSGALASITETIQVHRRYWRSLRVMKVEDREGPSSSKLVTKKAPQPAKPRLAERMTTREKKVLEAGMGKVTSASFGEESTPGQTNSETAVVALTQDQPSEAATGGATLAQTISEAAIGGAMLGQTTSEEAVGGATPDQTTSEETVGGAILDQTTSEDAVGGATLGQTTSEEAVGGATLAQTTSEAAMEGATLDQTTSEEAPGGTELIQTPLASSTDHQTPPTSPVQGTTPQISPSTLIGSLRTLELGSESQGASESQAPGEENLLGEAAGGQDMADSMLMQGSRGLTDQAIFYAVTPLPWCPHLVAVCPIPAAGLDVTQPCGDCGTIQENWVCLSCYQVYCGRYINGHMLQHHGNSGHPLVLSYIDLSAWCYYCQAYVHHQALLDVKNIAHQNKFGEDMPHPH
Test: Inhibition of HDAC6 (unknown origin) using fluorogenic tetrapeptide RHKK(Ac) substrate by fluorescence assay

O=C1CC[C@@H](C(=O)N[C@H](CCCCCS)C(=O)Nc2ccccc2)N1
IC50: 3 nM
